Results reported in patent publication US7612087B2, “Heterocyclic compounds as inhibitors of beta-lactamases” (Novexel, priority 2002, dated 2009).

Tests used:
Serratia 301HT6 = assay: MIC, micro-dilution in liquid medium, β-lactamine with product at 5 mg/l; assay type: cell-based; conditions: compound at 5 mg/l; Trial 10, 301HT6 Serratia; 24 hours at 37° C.
Method: (§1) The operation is carried out as follows, using the so-called micro-dilution in liquid medium method.
(§2) A series of concentrations of the β-lactamine is prepared in the presence of a constant concentration (5 mg/l) of the product to be studied, each is then seeded with various bacterial strains.
(§3) After incubation for 24 hours in a heating chamber at 37° C., the growth inhibition is evaluated by the absence of any bacterial development, which allows the minimal inhibitory concentrations (MIC) for each strain to be determined, expressed in milligrams/l.

E. coli 250SJ1 (Tem7) = assay: as above; assay type: cell-based; conditions: compound at 5 mg/l, 24 hours at 37° C.; for MIC of Cefotaxime in combination with the compound: Trial 5, 250SJ1 E. coli Tem7; for MIC of Piperacillin in combination with the compound: Trial 5, 250SJ1 Tem7
Method: as §1, §2, §3

[1] = tested on: E. cloacae 293HT6 (Class C); assay: as above; assay type: cell-based; conditions: compound at 5 mg/l, 24 hours at 37° C.; for MIC of Piperacillin in combination with the compound: Trial 9, 293HT6 Class; for MIC of Cefotaxime in combination with the compound: Trial 9, 293HT6 E. cloacae Class C
Method: as §1, §2, §3

E. coli 250HT22 (Tem2) = assay: as above; assay type: cell-based; conditions: compound at 5 mg/l, 24 hours at 37° C.; for MIC of Cefotaxime in combination with the compound: Trial 3, 250HT22 E. coli Tem2; for MIC of Piperacillin in combination with the compound: Trial 3, 250HT22 Tem2
Method: as §1, §2, §3

[2] = tested on: E. coli 250HT23 (Class D); assay: as above; assay type: cell-based; conditions: compound at 5 mg/l, 24 hours at 37° C.; for MIC of Piperacillin in combination with the compound: Trial 8, 250HT23 Class D; for MIC of Cefotaxime in combination with the compound: Trial 8, 250HT23 E. coli Class D
Method: as §1, §2, §3

E. coli 250BE1 (SHV4) = assay: as above; assay type: cell-based; conditions: compound at 5 mg/l, 24 hours at 37° C.; for MIC of Cefotaxime in combination with the compound: Trial 7, 250BE1 E. coli SHV4; for MIC of Piperacillin in combination with the compound: Trial 7, 250BE1 SHV4
Method: as §1, §2, §3

[3] = tested on: S. aureus 011GO66 (PeniR); assay: as above; assay type: cell-based; conditions: compound at 5 mg/l, 24 hours at 37° C.; for MIC of Cefotaxime in combination with the compound: Trial 1, 011GO66 S. aureus PeniR; for MIC of Piperacillin in combination with the compound: Trial 1, 011GO66 peniR
Method: as §1, §2, §3

[4] = tested on: P. aeruginosa 391HT8 (PSE); assay: as above; assay type: cell-based; conditions: compound at 5 mg/l, 24 hours at 37° C.; for MIC of Cefotaxime in combination with the compound: Trial 12, 391HT8 P. aeruginosa PSE; for MIC of Piperacillin in combination with the compound: Trial 12, 391HT8 PSE
Method: as §1, §2, §3

[5] = tested on: P. aeruginosa 391HT7 (PSE); assay: as above; assay type: cell-based; conditions: compound at 5 mg/l, 24 hours at 37° C.; for MIC of Cefotaxime in combination with the compound: Trial 11, 391HT7 P. aeruginosa PSE; for MIC of Piperacillin in combination with the compound: Trial 11, 391HT7 PSE
Method: as §1, §2, §3

E. coli 250HT21 (Tem1) = assay: as above; assay type: cell-based; conditions: compound at 5 mg/l, 24 hours at 37° C.; for MIC of Cefotaxime in combination with the compound: Trial 2, 250HT21 E. coli Tem1; for MIC of Piperacillin in combination with the compound: Trial 2, 250HT21 Tem1
Method: as §1, §2, §3

E. coli 250HT26 (SHV1) = assay: as above; assay type: cell-based; conditions: compound at 5 mg/l, 24 hours at 37° C.; for MIC of Cefotaxime in combination with the compound: Trial 6, 250HT26 E. coli SHV1; for MIC of Piperacillin in combination with the compound: Trial 6, 250HT26 SHV1
Method: as §1, §2, §3

β-lactamase TEM1 = molecular target: T1, β-lactamase TEM1 (Escherichia coli, UniProt P62593); assay: Inhibition of isolated β-lactamase Tem-1 (Nitrocefin hydrolysis); assay type: biochemical, E.coli 250HT21; conditions: 100 μM Nitrocefin, 50 mM sodium phosphate buffer pH7.0, 37° C.
T1 construct: The β-lactamases are isolated from bacterial strains which are resistant to penicillins and cephalosporins; endogenous in cells; host or cells: E. coli 250HT21 (natural producer; French-press lysate, 100,000 g supernatant)
Summary of the method: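 TEM-1 from soluble extract of E. coli 250HT21, normalized enzyme, 100 μM Nitrocefin in 50 mM sodium phosphate pH 7.0 at 37 °C. Initial-rate hydrolysis read kinetically at 485 nm, with and without 5 min enzyme–inhibitor preincubation. CI50 from 6 or 8 concentrations in duplicate.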

β-lactamase P99 = molecular target: T2, β-lactamase P99 (Enterobacter cloacae, UniProt P05364); assay: biochemical; conditions: 100 μM Nitrocefin, 50 mM sodium phosphate buffer pH7.0, 37° C.; read-out: IC50 nM/P99
T2 construct: The β-lactamases are isolated from bacterial strains which are resistant to penicillins and cephalosporins; endogenous in cells; host or cells: Enterobacter cloacae 293HT6 (natural producer; French-press lysate, 100,000 g supernatant)
Summary of the method: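 P99 β-lactamase, taken from the soluble fraction of an Enterobacter cloacae 293HT6 lysate, was assayed at 37° C. in 50 mM sodium phosphate buffer pH7.0 with 100 μM Nitrocefin as the chromogenic substrate. Hydrolysis was followed kinetically at 485 nm at initial speed, with and without a 5 mn enzyme–inhibitor preincubation. Inhibitors were tested at 6 or 8 concentrations in duplicate, and IC50 was fitted with GraFit.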

E. coli 250CF1 (Tem3) = assay: microbe, parasite or virus in culture; assay type: cell-based; conditions: compound at 5 mg/l, 24 hours at 37° C.; for MIC of Cefotaxime in combination with the compound: Trial 4, 250CF1 E. coli Tem3; for MIC of Piperacillin in combination with the compound: Trial 4, 250CF1 Tem3
Method: as §1, §2, §3

T2 sequence (P05364 21-381): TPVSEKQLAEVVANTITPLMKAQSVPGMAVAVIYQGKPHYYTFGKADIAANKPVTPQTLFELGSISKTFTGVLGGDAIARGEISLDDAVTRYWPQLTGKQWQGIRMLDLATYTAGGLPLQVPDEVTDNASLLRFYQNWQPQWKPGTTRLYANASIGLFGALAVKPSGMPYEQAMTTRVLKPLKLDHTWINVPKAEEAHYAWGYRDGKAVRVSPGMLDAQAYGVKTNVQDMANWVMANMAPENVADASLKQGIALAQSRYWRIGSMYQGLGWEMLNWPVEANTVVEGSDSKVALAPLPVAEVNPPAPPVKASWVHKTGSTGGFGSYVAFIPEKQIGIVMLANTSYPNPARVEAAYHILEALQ
T1 sequence (P62593 24-286 limits assumed): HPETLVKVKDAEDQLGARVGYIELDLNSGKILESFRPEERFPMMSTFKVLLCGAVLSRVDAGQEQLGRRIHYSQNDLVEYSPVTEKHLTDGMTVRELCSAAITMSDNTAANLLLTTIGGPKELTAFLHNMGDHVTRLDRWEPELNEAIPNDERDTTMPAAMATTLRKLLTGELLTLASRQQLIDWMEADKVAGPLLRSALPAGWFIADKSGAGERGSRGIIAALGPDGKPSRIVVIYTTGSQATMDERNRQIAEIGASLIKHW

Question: O=C(NCCc1cccnc1)[C@H]1CC[C@@H]2CN1C(=O)N2OS(=O)(=O)[O-].[Na+] (relative stereo) [Example 36, sodium salt of trans-7-oxo-N-[2-(3-pyridinyl)ethyl]-6-(sulphooxy)-1,6-diazabicyclo[3.2.1]octane-2-carboxamide] was tested. Which “MIC of Cefotaxime in combination with the compound” value (“MIC of Cefotaxime in combination” below) (Serratia 301HT6) did it give?
Answer: The value was 0.08 µg/mL.

Question: What about the “MIC of Piperacillin in combination with the compound” value (“MIC of Piperacillin in combination” for short) (Serratia 301HT6) of the same compound?
Answer: Its value is 1.2 µg/mL.

Question: And the “MIC of Cefotaxime in combination” value (E. coli 250SJ1 (Tem7))?
Answer: The value was “<=0.04 μg/ml”.

Question: And the “MIC of Piperacillin in combination” value (E. coli 250SJ1 (Tem7))?
Answer: The value was 20 µg/mL.

Question: And the “MIC of Piperacillin in combination” value [1]?
Answer: The value was 20 µg/mL.

Question: And the “MIC of Cefotaxime in combination” value [1]?
Answer: Its value is 20 µg/mL.

Question: And the “MIC of Cefotaxime in combination” value (E. coli 250HT22 (Tem2))?
Answer: Its value is “<=0.04 μg/ml”.

Question: What about the “MIC of Piperacillin in combination” value (E. coli 250HT22 (Tem2)) of the same compound?
Answer: The value was 40 µg/mL.

Question: And the “MIC of Piperacillin in combination” value [2]?
Answer: The value was 20 µg/mL.

Question: And the “MIC of Cefotaxime in combination” value [2]?
Answer: The value was “<=0.04 μg/ml”.

Question: What about the “MIC of Cefotaxime in combination” value (E. coli 250BE1 (SHV4)) of the same compound?
Answer: The value was 0.3 µg/mL.

Question: What about the “MIC of Piperacillin in combination” value (E. coli 250BE1 (SHV4)) of the same compound?
Answer: Its value is over 40 µg/mL.

Question: And the “MIC of Cefotaxime in combination” value [3]?
Answer: Its value is 1.2 µg/mL.

Question: What about the “MIC of Piperacillin in combination” value [3] of the same compound?
Answer: Its value is 1.2 µg/mL.

Question: What about the “MIC of Cefotaxime in combination” value [4] of the same compound?
Answer: Its value is 40 µg/mL.

Question: What about the “MIC of Piperacillin in combination” value [4] of the same compound?
Answer: The value was over 40 µg/mL.

Question: What about the “MIC of Cefotaxime in combination” value [5] of the same compound?
Answer: The value was 40 µg/mL.

Question: And the “MIC of Piperacillin in combination” value [5]?
Answer: Its value is over 40 µg/mL.

Question: And the “MIC of Cefotaxime in combination” value (E. coli 250HT21 (Tem1))?
Answer: Its value is “<=0.04 μg/ml”.

Question: And the “MIC of Piperacillin in combination” value (E. coli 250HT21 (Tem1))?
Answer: The value was 5 µg/mL.

Question: What about the “MIC of Cefotaxime in combination” value (E. coli 250HT26 (SHV1)) of the same compound?
Answer: Its value is “<=0.04 μg/ml”.

Question: What about the “MIC of Piperacillin in combination” value (E. coli 250HT26 (SHV1)) of the same compound?
Answer: The value was 20 µg/mL.

Question: And the IC50 (β-lactamase TEM1)?
Answer: Its IC50 is 23 nM.

Question: And the IC50 (β-lactamase P99)?
Answer: The IC50 was 110 nM.

Question: What about the “MIC of Cefotaxime in combination” value (E. coli 250CF1 (Tem3)) of the same compound?
Answer: Its value is 0.3 µg/mL.

Question: What about the “MIC of Piperacillin in combination” value (E. coli 250CF1 (Tem3)) of the same compound?
Answer: The value was 40 µg/mL.

Question: Which “MIC of Cefotaxime in combination” value (Serratia 301HT6) does the source give for O=C(NCCc1ccncc1)[C@H]1CC[C@@H]2CN1C(=O)N2OS(=O)(=O)[O-].[Na+] (relative stereo) [Example 37, sodium salt of trans-7-oxo-N-[2-(4-pyridinyl)ethyl]-6-(sulphooxy)-1,6-diazabicyclo[3.2.1]octane-2-carboxamide] here?
Answer: The value was 0.08 µg/mL.

Question: What about the “MIC of Piperacillin in combination” value (Serratia 301HT6) of the same compound?
Answer: Its value is 2.5 µg/mL.

Question: And the “MIC of Cefotaxime in combination” value (E. coli 250SJ1 (Tem7))?
Answer: The value was 0.08 µg/mL.

Question: And the “MIC of Piperacillin in combination” value (E. coli 250SJ1 (Tem7))?
Answer: The value was over 40 µg/mL.

Question: What about the “MIC of Piperacillin in combination” value [1] of the same compound?
Answer: The value was 40 µg/mL.

Question: And the “MIC of Cefotaxime in combination” value [1]?
Answer: Its value is over 40 µg/mL.

Question: What about the “MIC of Cefotaxime in combination” value (E. coli 250HT22 (Tem2)) of the same compound?
Answer: The value was “<=0.04 μg/ml”.

Question: What about the “MIC of Piperacillin in combination” value (E. coli 250HT22 (Tem2)) of the same compound?
Answer: The value was over 40 µg/mL.

Question: And the “MIC of Piperacillin in combination” value [2]?
Answer: The value was 40 µg/mL.

Question: What about the “MIC of Cefotaxime in combination” value [2] of the same compound?
Answer: Its value is “<=0.04 μg/ml”.

Question: And the “MIC of Cefotaxime in combination” value (E. coli 250BE1 (SHV4))?
Answer: The value was 0.6 µg/mL.

Question: What about the “MIC of Piperacillin in combination” value (E. coli 250BE1 (SHV4)) of the same compound?
Answer: The value was over 40 µg/mL.

Question: What about the “MIC of Cefotaxime in combination” value [3] of the same compound?
Answer: The value was 1.2 µg/mL.

Question: And the “MIC of Piperacillin in combination” value [3]?
Answer: Its value is 0.6 µg/mL.

Question: What about the “MIC of Cefotaxime in combination” value [4] of the same compound?
Answer: Its value is 20 µg/mL.

Question: And the “MIC of Piperacillin in combination” value [4]?
Answer: Its value is over 40 µg/mL.

Question: And the “MIC of Cefotaxime in combination” value [5]?
Answer: The value was 20 µg/mL.

Question: What about the “MIC of Piperacillin in combination” value [5] of the same compound?
Answer: The value was over 40 µg/mL.

Question: What about the “MIC of Cefotaxime in combination” value (E. coli 250HT21 (Tem1)) of the same compound?
Answer: The value was “<=0.04 μg/ml”.

Question: And the “MIC of Piperacillin in combination” value (E. coli 250HT21 (Tem1))?
Answer: The value was 2.5 µg/mL.

Question: And the “MIC of Cefotaxime in combination” value (E. coli 250HT26 (SHV1))?
Answer: The value was “<=0.04 μg/ml”.

Question: And the “MIC of Piperacillin in combination” value (E. coli 250HT26 (SHV1))?
Answer: The value was 20 µg/mL.

Question: What about the IC50 (β-lactamase TEM1) of the same compound?
Answer: Its IC50 is 29 nM.

Question: What about the IC50 (β-lactamase P99) of the same compound?
Answer: The IC50 was 160 nM.

Question: And the “MIC of Cefotaxime in combination” value (E. coli 250CF1 (Tem3))?
Answer: The value was 0.3 µg/mL.

Question: And the “MIC of Piperacillin in combination” value (E. coli 250CF1 (Tem3))?
Answer: Its value is 40 µg/mL.
